Laboratory results as given in the supplement of paper PMC10307832.

compound: CC[C@@H]1C(=O)N(C)c2cnc(Nc3ccc(C(=O)NC4CCN(C)CC4)cc3OC)nc2N1C1CCCC1 [BI-2536] + Cc1nc(NC(=O)N2CCC[C@H]2C(N)=O)sc1-c1ccnc(C(C)(C)C(F)(F)F)c1 [Alpelisib] (partner 2 µM); experiment: relative viability (nuclei count vs DMSO), 5 days (fraction); higher = more cells survive; details: first compound 1 µM
Procedure, shortened: (§1)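 Relative viability was taken as the ratio of nuclei in treated wells to nuclei in vehicle wells. Lung cancer cell lines in 1536-well plates received compounds by pin tool one day after seeding, either one drug alone or a fixed anchor-drug dose plus five library-drug doses (not always all listed) in √10 steps. Nuclei were counted on 4× images after 5 days of treatment, and values are medians of duplicate plates.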

Cell Line	relative viability
EKVX	0.138
LC-2-ad	0.123

compound: CC1CC(=O)N(C2=CN=C(N=C2N1C3CCCC3)NC4=C(C=C(C=C4)C(=O)NC5CCN(CC5)C)OC)C [NPK76-II-72-1] + COc1cc2c(Oc3ccc(NC(=O)C4(C(=O)Nc5ccc(F)cc5)CC4)cc3F)ccnc2cc1OCCCN1CCOCC1 [Foretinib] (partner 0.25 µM); experiment: as above; details: first compound 0.01 µM
Procedure, shortened: as §1

Cell Line	relative viability
NCI-H2405	1.05
HOP-62	1.06
LU99A	0.774
BEN	0.676
HARA	0.913
HCC-78	0.561
NCI-H322M	1.06
LCLC-97TM1	0.935
A-427	0.923
NCI-H441	0.931
NCI-H1734	0.84
NCI-H460	0.931
NCI-H2347	0.844
NCI-H1395	1.02
201T	1.06
NCI-H1915	1.09

Cell Line	relative viability
HCC-827	1.01
LXF-289	0.945
NCI-H23	0.955
NCI-H647	1.12
CAL-12T	1.11
NCI-H1651	0.811
EPLC-272H	0.552
NCI-H1355	0.929
NCI-H3122	0.93
NCI-H1437	1.22
NCI-H1755	0.968
HCC-15	1.05
NCI-H1793	0.659
PC-14	0.936
EKVX	0.428
LC-2-ad	0.908

same assay, conditions: first compound 0.03162 µM

Cell Line	relative viability
NCI-H2405	1.08
HOP-62	1.27
LU99A	0.765
BEN	0.526
HARA	1.06
HCC-78	0.549
NCI-H322M	1.09
LCLC-97TM1	0.973
A-427	1.04
NCI-H441	1.09
NCI-H1734	0.792
NCI-H460	1.02
NCI-H2347	1.1
NCI-H1395	0.959
201T	1.12
NCI-H1915	1.13

Cell Line	relative viability
HCC-827	1.06
LXF-289	1.03
NCI-H23	0.88
NCI-H647	1.19
CAL-12T	1.18
NCI-H1651	0.826
NCI-H1355	0.932
NCI-H3122	1.01
NCI-H1437	1.27
NCI-H1755	0.916
HCC-15	1.18
NCI-H1793	0.687
PC-14	1.1
EKVX	0.878
LC-2-ad	0.948

same assay, conditions: first compound 0.1 µM

Cell Line	relative viability
NCI-H2405	0.999
HOP-62	0.993
LU99A	0.936
BEN	0.748
HARA	0.797
HCC-78	0.489
NCI-H322M	0.976
LCLC-97TM1	0.85
A-427	1.08
NCI-H441	0.785
NCI-H1734	0.857
NCI-H460	0.996
NCI-H2347	0.935
NCI-H1395	0.954
201T	1.15
NCI-H1915	1.1

Cell Line	relative viability
HCC-827	0.912
LXF-289	0.896
NCI-H23	0.954
NCI-H647	1.35
CAL-12T	1.03
NCI-H1651	0.825
EPLC-272H	0.69
NCI-H1355	0.926
NCI-H3122	0.902
NCI-H1437	1.15
NCI-H1755	0.883
HCC-15	0.92
NCI-H1793	0.747
PC-14	0.894
EKVX	0.773
LC-2-ad	0.94

same assay, conditions: first compound 0.3162 µM

Cell Line	relative viability
NCI-H2405	1.03
HOP-62	1.15
LU99A	0.503
BEN	0.657
HARA	0.819
HCC-78	0.507
NCI-H322M	0.923
LCLC-97TM1	0.881
A-427	1.14
NCI-H441	0.823
NCI-H1734	0.84
NCI-H460	1.01
NCI-H2347	0.424
NCI-H1395	1.1
201T	1.06
NCI-H1915	1.06

Cell Line	relative viability
HCC-827	1.03
LXF-289	0.948
NCI-H23	0.99
NCI-H647	1.04
CAL-12T	1.1
NCI-H1651	0.74
EPLC-272H	0.852
NCI-H1355	0.852
NCI-H3122	0.866
NCI-H1437	1.11
NCI-H1755	0.893
HCC-15	0.969
NCI-H1793	0.559
PC-14	0.928
EKVX	0.3
LC-2-ad	0.809

same assay, conditions: first compound 1 µM

Cell Line	relative viability
NCI-H2405	1.17
HOP-62	1.08
LU99A	0.979
BEN	0.635
HARA	1.1
HCC-78	0.616
NCI-H322M	0.978
LCLC-97TM1	0.948
A-427	1.07
NCI-H441	1.16
NCI-H1734	1.22
NCI-H460	1.02
NCI-H2347	0.917
NCI-H1395	0.95
201T	1.27
NCI-H1915	1.09

Cell Line	relative viability
HCC-827	1.12
LXF-289	0.961
NCI-H23	0.973
NCI-H647	1.19
CAL-12T	1.3
NCI-H1651	0.953
EPLC-272H	0.729
NCI-H1355	0.982
NCI-H3122	0.958
NCI-H1437	1.25
NCI-H1755	0.917
HCC-15	1.1
NCI-H1793	0.533
PC-14	1.01
EKVX	1.15
LC-2-ad	1.08

compound: CC1CC(=O)N(C2=CN=C(N=C2N1C3CCCC3)NC4=C(C=C(C=C4)C(=O)NC5CCN(CC5)C)OC)C [NPK76-II-72-1] + NC(=O)Nc1cc(-c2cccc(F)c2)sc1C(=O)N[C@H]1CCCNC1 [AZD7762] (partner 0.2 µM); experiment: as above; details: first compound 0.01 µM
Procedure, shortened: as §1

Cell Line	relative viability
NCI-H2405	0.689
HOP-62	0.405
LU99A	0.425
BEN	0.77
HARA	0.292
HCC-78	0.634
NCI-H322M	0.532
LCLC-97TM1	0.298
A-427	0.682
NCI-H441	1.12
NCI-H1734	0.531
NCI-H460	0.631
NCI-H2347	0.805
NCI-H1395	0.388
201T	0.579
NCI-H1915	0.709

Cell Line	relative viability
HCC-827	0.2
LXF-289	1.07
NCI-H23	0.249
NCI-H647	0.4
CAL-12T	0.65
NCI-H1651	0.436
EPLC-272H	0.183
NCI-H1355	0.686
NCI-H3122	0.88
NCI-H1437	1.14
NCI-H1755	0.356
HCC-15	1.18
PC-14	0.356
EKVX	0.672
LC-2-ad	0.833

same assay, conditions: first compound 0.03162 µM

Cell Line	relative viability
NCI-H2405	0.775
HOP-62	0.507
LU99A	0.298
BEN	0.516
HARA	0.464
HCC-78	0.574
NCI-H322M	0.504
LCLC-97TM1	0.404
A-427	0.673
NCI-H441	1.07
NCI-H1734	0.557
NCI-H460	0.652
NCI-H2347	0.755
NCI-H1395	0.341
201T	0.759
NCI-H1915	0.751

Cell Line	relative viability
HCC-827	0.203
LXF-289	1.12
NCI-H23	0.246
NCI-H647	0.476
CAL-12T	0.718
NCI-H1651	0.449
EPLC-272H	0.207
NCI-H1355	0.792
NCI-H3122	1
NCI-H1437	1.15
NCI-H1755	0.468
HCC-15	1.32
NCI-H1793	0.69
PC-14	0.312
EKVX	0.629
LC-2-ad	0.855

same assay, conditions: first compound 0.1 µM

Cell Line	relative viability
NCI-H2405	0.728
HOP-62	0.556
LU99A	0.503
BEN	0.791
HARA	0.297
HCC-78	0.593
NCI-H322M	0.52
LCLC-97TM1	0.27
A-427	0.945
NCI-H441	1.08
NCI-H1734	0.676
NCI-H460	0.666
NCI-H2347	0.646
NCI-H1395	0.4
201T	0.62
NCI-H1915	0.665

Cell Line	relative viability
HCC-827	0.243
LXF-289	0.992
NCI-H23	0.292
NCI-H647	0.578
CAL-12T	0.506
NCI-H1651	0.471
EPLC-272H	0.22
NCI-H1355	0.857
NCI-H3122	1.03
NCI-H1437	1.1
NCI-H1755	0.431
HCC-15	0.549
NCI-H1793	0.618
PC-14	0.337
EKVX	0.718
LC-2-ad	0.852

same assay, conditions: first compound 0.3162 µM

Cell Line	relative viability
NCI-H2405	0.746
HOP-62	0.444
LU99A	0.248
BEN	0.572
HCC-78	0.521
NCI-H322M	0.655
A-427	0.796
NCI-H441	1.04
NCI-H1734	0.532
NCI-H460	0.555
NCI-H2347	0.704
NCI-H1395	0.396
201T	0.618
NCI-H1915	0.647
HCC-827	0.129
LXF-289	1.1
NCI-H23	0.286
NCI-H647	0.434
CAL-12T	0.645
NCI-H1651	0.377
EPLC-272H	0.254
NCI-H1355	0.767
NCI-H3122	0.996
NCI-H1437	1.04
NCI-H1755	0.464
HCC-15	1.16
NCI-H1793	0.238
PC-14	0.358
LC-2-ad	0.879

same assay, conditions: first compound 1 µM

Cell Line	relative viability
NCI-H2405	0.705
HOP-62	0.514
LU99A	0.402
BEN	0.786
HARA	0.451
HCC-78	0.755
NCI-H322M	0.52
LCLC-97TM1	0.298
A-427	0.814
NCI-H441	1.07
NCI-H1734	0.667
NCI-H460	0.75
NCI-H2347	0.883
NCI-H1395	0.387
201T	0.619
NCI-H1915	0.726

Cell Line	relative viability
HCC-827	0.259
LXF-289	1.08
NCI-H23	0.319
NCI-H647	0.379
CAL-12T	0.724
NCI-H1651	0.501
EPLC-272H	0.208
NCI-H1355	0.748
NCI-H3122	0.973
NCI-H1437	1.17
NCI-H1755	0.436
HCC-15	1.23
NCI-H1793	0.566
PC-14	0.344
EKVX	0.83
LC-2-ad	0.895
